Results on 4 cell lines are retold here after the supplement of paper PMC10307832.

What all share (experiment): relative viability (nuclei count vs DMSO), 5 days (fraction); higher = more cells survive
Compound in assay [1]: C/C(=N\NC(=S)N1CCC1)/C2=CC=CC=N2 + C[C@@H](Oc1cc(-c2cnn(C3CCNCC3)c2)cnc1N)c1c(Cl)ccc(F)c1Cl [Crizotinib] (partner 1 µM)
In outline: (§1)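 Lung cancer cell lines were seeded in 1536-well plates and dosed by pin tool the next day, with either a single drug or a fixed anchor-drug dose combined with five library-drug doses (not always all listed) spaced in √10 steps. Five days later, one step fixed the cells and stained their nuclei (final 0.05% Triton X-100, 1% formaldehyde, 1 ug/ml Hoechst), and nuclei were counted on 4× images. Relative viability is the nuclei count in treated wells divided by the count in vehicle wells, and each value is the median of duplicate plates.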

Compound in assay [2]: C/C(=N\NC(=S)N1CCC1)/C2=CC=CC=N2 + Cc1nc(Nc2ncc(C(=O)Nc3c(C)cccc3Cl)s2)cc(N2CCN(CCO)CC2)n1 [Dasatinib] (partner 0.075 µM)
The gist of the method: as §1

Compound in assay [3]: C/C(=N\NC(=S)N1CCC1)/C2=CC=CC=N2 + O=C(CCCCCCC(=O)Nc1ccccc1)NO [Vorinostat] (partner 1 µM)
The gist of the method: as §1

Compound in assay [4]: C/C(=N\NC(=S)N1CCC1)/C2=CC=CC=N2 + CC1(C)CCC(c2ccc(Cl)cc2)=C(CN2CCN(c3ccc(C(=O)NS(=O)(=O)c4ccc(N[C@H](CCN5CCOCC5)CSc5ccccc5)c(S(=O)(=O)C(F)(F)F)c4)cc3)CC2)C1 [Navitoclax] (partner 0.5 µM)
In outline: as §1

UMC-11: the relative viability in assay [1] (first compound 0.05 µM) came to 0.181; in assay [1] (first compound 0.1581 µM) it was 0.115; in assay [1] (first compound 0.5 µM), 0.128; in assay [1] (first compound 1.581 µM) it was 0.101; in assay [1] (first compound 5 µM) it was 0.0892; in assay [2] (first compound 0.05 µM), 0.231. Also, the relative viability in assay [2] (first compound 0.1581 µM) was 0.186; in assay [2] (first compound 0.5 µM), 0.153; in assay [2] (first compound 1.581 µM), 0.138; in assay [2] (first compound 5 µM), 0.146; in assay [3] (first compound 0.05 µM), 0.168; in assay [3] (first compound 0.1581 µM), 0.14. Also, the relative viability stood at 0.146 in assay [3] (first compound 0.5 µM); 0.134 in assay [3] (first compound 1.581 µM); 0.139 in assay [3] (first compound 5 µM); 0.16 in assay [4] (first compound 0.05 µM); 0.138 in assay [4] (first compound 0.1581 µM); 0.119 in assay [4] (first compound 0.5 µM). Moreover, the results for the relative viability in assay [4] (first compound 1.581 µM) and in assay [4] (first compound 5 µM) were 0.116 and 0.106, respectively.

Take A-427: the relative viability in assay [1] (first compound 0.05 µM) is 0.267; in assay [1] (first compound 0.1581 µM), 0.445; in assay [1] (first compound 0.5 µM), 0.0997; in assay [1] (first compound 1.581 µM) it was 0.0835; in assay [1] (first compound 5 µM), 0.129; in assay [2] (first compound 0.05 µM) it was 0.144. Moreover, the relative viability is 0.124 in assay [2] (first compound 0.1581 µM); 0.132 in assay [2] (first compound 0.5 µM); 0.0986 in assay [2] (first compound 1.581 µM); 0.117 in assay [2] (first compound 5 µM); 0.187 in assay [3] (first compound 0.05 µM); 0.198 in assay [3] (first compound 0.1581 µM). Further, the relative viability is 0.171 in assay [3] (first compound 0.5 µM); 0.158 in assay [3] (first compound 1.581 µM); 0.186 in assay [3] (first compound 5 µM); 0.182 in assay [4] (first compound 0.05 µM); 0.664 in assay [4] (first compound 0.1581 µM); 0.141 in assay [4] (first compound 0.5 µM). Also, the figures for the relative viability in assay [4] (first compound 1.581 µM) and in assay [4] (first compound 5 µM) were 0.125 and 0.133, respectively.

With LCLC-97TM1, the relative viability in assay [1] (first compound 0.05 µM) was 0.155; in assay [1] (first compound 0.1581 µM), 0.307; in assay [1] (first compound 0.5 µM) it was 0.103; in assay [1] (first compound 1.581 µM) it was 0.0898; in assay [1] (first compound 5 µM) it was 0.119; in assay [2] (first compound 0.05 µM), 0.163. In addition, the relative viability in assay [2] (first compound 0.1581 µM) worked out at 0.161; in assay [2] (first compound 0.5 µM), 0.143; in assay [2] (first compound 1.581 µM), 0.0911; in assay [2] (first compound 5 µM), 0.13; in assay [3] (first compound 0.05 µM), 0.071; in assay [3] (first compound 0.1581 µM) it was 0.0753. The relative viability in assay [3] (first compound 0.5 µM) was determined as 0.0572; in assay [3] (first compound 1.581 µM), 0.0546; in assay [3] (first compound 5 µM), 0.0434; in assay [4] (first compound 0.05 µM), 0.124; in assay [4] (first compound 0.1581 µM) it was 0.421; in assay [4] (first compound 0.5 µM), 0.0929. Further, the relative viability was 0.115 in assay [4] (first compound 1.581 µM) and 0.104 in assay [4] (first compound 5 µM).

Take HCC-15: the relative viability in assay [1] (first compound 0.05 µM) came out at 0.21; in assay [1] (first compound 0.1581 µM), 0.412; in assay [1] (first compound 0.5 µM) it was 0.0685; in assay [1] (first compound 1.581 µM), 0.073; in assay [1] (first compound 5 µM) it was 0.0642; in assay [2] (first compound 0.05 µM), 0.0569. Also, the relative viability in assay [2] (first compound 0.1581 µM) turned out to be 0.0708; in assay [2] (first compound 0.5 µM), 0.0679; in assay [2] (first compound 1.581 µM), 0.0571; in assay [2] (first compound 5 µM), 0.0669; in assay [3] (first compound 0.05 µM), 0.204; in assay [3] (first compound 0.1581 µM), 0.275. Further, the relative viability in assay [3] (first compound 0.5 µM) is 0.145; in assay [3] (first compound 1.581 µM), 0.139; in assay [3] (first compound 5 µM) it was 0.116; in assay [4] (first compound 0.05 µM), 0.198; in assay [4] (first compound 0.1581 µM) it was 0.392; in assay [4] (first compound 0.5 µM), 0.0695. For the same cell line, the relative viability in assay [4] (first compound 1.581 µM) was determined as 0.092; in assay [4] (first compound 5 µM) it was 0.0784.
